Source: patent publication US12070444B2, “Modulation of molecular markers using S-equol” (Board of Regents, The University of Texas System, priority 2020, dated 2024)
Entries after “also recorded” stand apart in the source; their conditions may differ.

Legend:
[1] = tested on: B16 melanoma tumor cell line; test: B16 melanoma tumor challenge in mice treated with S-equol and/or anti-PD-1 antibody; assay type: in vivo, mouse
Method: FIG. 4. A schema for combination therapy. Mice were administered one of: (1) vehicle+rat IgG2a; (2) S-equol+rat IgG2a; (3) vehicle+anti-PD-1 antibody; or (4) S-equol+anti-PD-1 antibody. Mice receiving anti-PD-1 antibody were given 250 μg every 3 days, intraperitoneally, and mice receiving S-equol were given 50 mg/kg per day by oral gavage. Treatment started 7 days after tumor challenge with B16 melanoma.
Melanoma cell line B16 was tested to determine the effects of a PD-1 inhibitor, S-equol and a combination of the two therapies on tumor growth. This experimental design includes four arms: (1) controls, (2) αPD-1, (3) S-equol, and (4) αPD-1+S-equol (FIG. 4) by injecting into mice 5×10^5 cells subcutaneously. Antibodies were administered α-PD-1: 250 μg/mice by i.p. injection every 3 days and S-equol was administered at 50 mg/kg/day by oral gavage. Treatment began 7 day after tumor challenge. Tumor growth trajectories were compared within treated mice using a repeated measures linear mixed model. The primary outcome was the logarithm of the tumor size, and the test statistic is the treatment×time interaction. Tumors were measured about 10 times. The number of recipient mice use used in the studies (n=6 per group) was based on the above study.
For tumor studies, 8 to 10-week-old mice were used. M-Wnt (5 Å˜10^5 cells), E0771 (5 Å˜10^5 cells), AT-3 (2 Å˜10^5 cells), and EMT-6 (5 Å˜10^5 cells) tumor cells were subcutaneously inoculated into the fourth mammary pad. B16F10 (0.5 Å˜10^6 cells) and MC38 (5 Å˜10^6 cells) tumor cells were subcutaneously inoculated into the back flank. Tumor volume was measured with calipers (0.5 Å˜length Å˜width2) on the indicated days. Anti-IgG2a (BioXcell, Cat: #BE0146) and anti-PD-1 (BioXcell, Cat: #BE0089) antibodies were administered through intraperitoneal (i.p.) injection at a dose of […] every 3 days starting on day 7 after tumor challenge for the duration as indicated. S-equol (from Ausio Pharmaceuticals) was administered daily by oral gavage at 50 mg/kg beginning on the day of tumor challenge and continuing throughout the entire tumor growth experiments.

[2] = tested on: E0771 mammary tumor cell line; test: E0771 mammary tumor challenge in mice treated with S-equol and/or anti-PD-1 antibody; assay type: in vivo, mouse; conditions: E0771 mammary tumor model, Example 14, four arms (FIG. 33A-B)
Method: The following three murine mammary tumor lines were tested to determine the effects of a PD-1 inhibitor, S-equol and a combination of the two therapies on tumor growth: (1) E0771 (B6 background), (2) AT-3 (B6 background), and (3) 4T1 (BalbC background). This experimental design includes four arms (using AT-3 as an example): (1) controls, (2) αPD-1, (3) S-equol, and (4) αPD-1+S-equol (FIG. 3) by injecting into mice 2×10^5 cells subcutaneously into the 4th mammary gland fat pad. Antibodies were administered α-PD-1: 200 μg/mice by i.p. injection every 3 days and S-equol was administered at 50 mg/kg/day by oral gavage. Treatment began 7 day after tumor challenge. Tumor growth trajectories were compared within treated mice using a repeated measures linear mixed model. The primary outcome was the logarithm of the tumor size, and the test statistic is the treatment×time interaction. Tumors were measured about 10 times. The number of recipient mice use used in the studies (n=8 per group) was based on the above study.
For tumor studies, 8 to 10-week-old mice were used. M-Wnt (5 Å˜10^5 cells), E0771 (5 Å˜10^5 cells), AT-3 (2 Å˜10^5 cells), and EMT-6 (5 Å˜10^5 cells) tumor cells were subcutaneously inoculated into the fourth mammary pad. […] Tumor volume was measured with calipers (0.5 Å˜length Å˜width2) on the indicated days. […]

[3] = tested on: melanoma; test: Pilot biomarker clinical study of S-equol in melanoma (Example 7, present tense); assay type: in vivo, human; conditions: melanoma patients, oral S-equol 50 mg twice daily 10-21 days
Method: A pilot biomarker clinical study is performed in 20 subjects with documented melanoma to determine the effect of the ERβ agonist S-equol on Ki67 an indicator of tumor cell proliferation. Tumor cell proliferation is measured by immunohistological staining for Ki-67. Ki-67 is encoded by the gene MKI67 gene and is required to maintain individual mitotic chromosomes dispersed in the cytoplasm following nuclear envelope disassembly. Measuring the fraction of Ki-67-positive cells in a tumor is known to be a reliable parameter for assessing cancer patient prognosis. Subjects with TNBC are known to have very high levels of Ki67.
Patients enrolled in the study receive a history, physical, laboratory assessment, radiological imaging, and diagnostic biopsies. Immunohistochemistry (IHC) of Ki67 (proliferation marker), total ERβ, and pY36-ERβ (phosphorylated ERβ), B7H1 (also known as PDL-1) and MIA and S100B are conducted using core needle biopsy tissue samples prior to treatment. Patients are given oral S-equol 50 mg, twice daily for approximately two weeks (10-21 days) prior to the scheduled oncologic surgeries or start of primary systemic therapy. […]
A standard procedure for acquiring core biopsy is utilized for determining melanoma prior to enrollment. […] The tissue samples are sent for staining of total and pY36, ERβ and Ki67, and analyzed. […]

[4] = tested on: cytochrome oxidase (COX); conditions: brains from ovariectomized mice; cited from earlier work

Oc1ccc([C@H]2COc3cc(O)ccc3C2)cc1 [S-equol]
tumor weight ([1]; B16 melanoma (FIG. 8A)): reduce tumor weight compared to control | tumor response (growth and tumor weight) ([1]; B16 melanoma, Example 14, four arms (FIG. 26B-C)): responded | tumor volume ([1]; B16 melanoma, anti-PD-1 250 μg every 3 days i.p., S-equol 50 mg/kg per day oral gavage, over 12 days post-challenge (FIG. 6)): reduce tumor volume compared to control | tumor volume ([1]; B16 melanoma, anti-PD-1 250 μg every 3 days i.p., S-equol 50 mg/kg per day oral gavage, over 19 days post-challenge (FIG. 7)): reduce tumor volume compared to control | tumor volume ([1]; B16 melanoma, legend headed over 16 days, text says over 12 days post-challenge (FIG. 9A)): reduce tumor volume compared to control | tumor response (volume and weight) [2]: responded | change in Ki67 pre- vs post-treatment (in words) [3]: measurable decrease in Ki67; also recorded: measurable decline in Ki67 | cytochrome oxidase (COX) activity and COX1 protein levels [4]: increase
